Laboratory results published in patent US11918628B2, “Controlled-release PTH compound” (ASCENDIS PHARMA BONE DISEASES A/S, priority 2016, dated 2024).

Experiments:
[1] = tested on: patients with hypoparathyroidism; details: cited from earlier work
rats = details: daily injections; cited from earlier work
[2] = tested on: patients with hypoparathyroidism; details: cited from earlier work; remark: listed apart in the source
TPTx rats = experiment: 28-days study in thyroparathyroidectomised (TPTx) rats with daily subcutaneous injections of conjugate 18 or PTH(1-84); assay type: in vivo, rat
Protocol: Quantitative measurements of serum calcium (sCa), urinary calcium and serum phosporous (sP) were performed on a Roche-Hitachi P800 modular biochemistry instrument.
This study was performed in order to test and compare the effect of daily subcutaneous injection of compound 18 and PTH(1-84), the current standard of care, in an animal disease model relevant for investigating treatment of hypoparathyroidism (HP). Rats subjected to thyroparathyroidectomy (TPTx) by blunt dissection are unable to produce parathyroid hormone, PTH, the major regulator of calcium homeostasis. […] 17 weeks old female SD TPTx rats (n=9/group) were dosed subcutaneously for 28 days with compound 18 ([…]; 1.2 nmol/kg/d, in 10 mM succinic acid, 46 g/L mannitol, pH 4.0), PTH(1-84) (70 μg PTH eq/kg/d; 7.3 nmol/kg/d; in 10 mM citrate, mannitol 39.0 g/L, pH 5.0) or vehicle. Additionally, one group of sham operated rats (n=9) representing normophysiological background control were also given vehicle. Serum calcium (sCa) and phosporous (sP) levels in the animals were measured pre- and post-dose on days 1, 6, 12 and 27. Moreover, bone turnover markers (P1NP and CTx) were measured and bone quality assessed by ex vivo pQCT.

patients = details: 6-year follow-up; cited from earlier work

| Compound | daily dose with pump delivery, lower than with the twice daily injection regimen ([1]; pump delivery versus twice daily injection) | calcium levels with pump delivery ([1]; pump delivery, over 6-months) | urinary calcium excretion with pump delivery ([1]; pump delivery) | osteosarcoma rate (rats) | urinary calcium excretion 2-8 hours after injection ([2]; 2-8 hours after injection) | urinary calcium excretion over the 24-hour period ([2]; 24-hour period after injection) | urinary phosphate excretion ([2]; after injection) | participants who achieved normal blood calcium levels on reduced doses of calcium supplements and active forms of vitamin D ([2]; pivotal trial, once-daily sc, adjunct to vitamin D and calcium) | patients who developed hypercalcemia at one or more measurements during a 24-hour period ([2]; serum calcium monitored after injection) | incidences of hypercalcemia, hypocalcemia or hypercalciuria relative to conventional therapy ([2]; treated patients) | trabecular and cortical BMD/bone in vertebrae after 28 days of treatment (TPTx rats; TPTx rats, 28 days daily sc) | trabecular BMD compared to both control groups (TPTx rats; TPTx rats, 28 days daily sc, 7.3 nmol/kg/d) | sCa ratio treated/sham-control at day 12 (TPTx rats; TPTx rats, daily sc, day 12) | effect on serum phosphorous (sP) (TPTx rats; TPTx rats, daily sc, compound 18 1.2 nmol/kg/d, PTH(1-84) 7.3 nmol/kg/d) | effect on serum calcium (sCa) (TPTx rats; TPTx rats, daily sc, compound 18 1.2 nmol/kg/d, PTH(1-84) 7.3 nmol/kg/d, versus vehicle-injected TPTx rats) | serum calcium (sCa) at day 12 (TPTx rats; female SD TPTx rats, daily sc, day 12) | bone mineral density (BMD) by DXA (patients) | bone turnover markers (patients) |
| --- | --- | --- | --- | --- | --- | --- | --- | --- | --- | --- | --- | --- | --- | --- | --- | --- | --- | --- |
| CC[C@H](C)[C@H](NC(=O)[C@H](CCC(=O)O)NC(=O)[C@H](CO)NC(=O)[C@@H](NC(=O)[C@@H](N)CO)C(C)C)C(=O)N[C@@H](CCC(N)=O)C(=O)N[C@@H](CC(C)C)C(=O)N[C@@H](CCSC)C(=O)N[C@@H](Cc1cnc[nH]1)C(=O)N[C@@H](CC(N)=O)C(=O)N[C@@H](CC(C)C)C(=O)NCC(=O)N[C@@H](CCCCN)C(=O)N[C@@H](Cc1cnc[nH]1)C(=O)N[C@@H](CC(C)C)C(=O)N[C@@H](CC(N)=O)C(=O)N[C@@H](CO)C(=O)N[C@@H](CCSC)C(=O)N[C@@H](CCC(=O)O)C(=O)N[C@@H](CCCN=C(N)N)C(=O)N[C@H](C(=O)N[C@@H](CCC(=O)O)C(=O)N[C@@H](Cc1c[nH]c2ccccc12)C(=O)N[C@@H](CC(C)C)C(=O)N[C@@H](CCCN=C(N)N)C(=O)N[C@@H](CCCCN)C(=O)N[C@@H](CCCCN)C(=O)N[C@@H](CC(C)C)C(=O)N[C@@H](CCC(N)=O)C(=O)N[C@@H](CC(=O)O)C(=O)N[C@H](C(=O)N[C@@H](Cc1cnc[nH]1)C(=O)N[C@@H](CC(N)=O)C(=O)N[C@@H](Cc1ccccc1)C(=O)O)C(C)C)C(C)C [PTH(1-34)] | 65% | normal, steady state calcium levels with minimal fluctuation | marked reduction | dose dependent increase | – | – | – | – | – | – | – | – | – | – | – | – | – | – |
| PTH(1-84): Natpara, PTH(1-84), polypeptide with the sequence of SEQ ID NO:1; the current standard of care | – | – | – | dose dependent increase | reduced | did not change | increased only during the first 8 hours | 42% | 71% | has not demonstrated an ability to reduce | anabolic effect | significant increase | 0.76 | minimal decrease | did not lead to increase in sCa | 8.1 mg/dL | increases in lumbar spine and declines in the distal ⅓ radius | remained greater than pretreatment values |
